Results published in US10532068B2, “Dual molecular delivery of oligonucleotides and peptide containing conjugates” (Merck Sharp & Dohme Corp., priority 2013, dated 2020).
Where no end group is shown, it is not given here. [ ]: non-standard residue; d: D form. S‑S‑TGN = not defined here; TGN = not defined here

System: CTNNB1
Assay: In vivo evaluation in mice: liver mRNA knockdown measurement (TaqMan qPCR)
Design: species or system CD-1 mice
Procedure: Female CD-1 mice (Charles River) were injected in accordance with either a sequential dosing paradigm or a co-dosing paradigm. In the sequential dosing paradigm, the targeted siRNA (SCE) is dosed at t=0 and the targeted peptide is separately dosed up to 2 hr before the SCE (−2 hr) or up to 24 hr after the SCE (+24 hr). In the co-dosing paradigm, the SCE and peptides are co-formulated and dosed together in the same formulation as a single injection at t=0. The mice were dosed either by intravenous (i.v.) or subcutaneous (s.c.) injection of SCE and peptide. For the i.v. doses, the compounds were injected into the tail vein of the mice. For the s.c. doses, the compounds were injected in the subcutaneous space on the back of the mouse between the shoulder blades. At the indicated harvest times (measured from t=0 when the siRNA was dosed, regardless of when the peptide was dosed), the animals were sacrificed and 3 mm liver punches were collected, preserved in RNAlater (Ambion), and stored at 4° C. Separate 5 mm liver punches were collected, placed in 96-well plates, frozen on dry ice, and stored at −80° C. until use.
The 3 mm liver punches were removed from RNAlater and homogenized in Trizol (Invitrogen) using a bead mill tissue lyser (Qiagen); disruption was performed for two 5-minute cycles at 30 Hz. RNA extraction was performed using 1-bromo-2-chloropropane (Acros Organics) and total RNA was isolated from the aqueous phase using the MagMax RNA isolation method (Ambion). […] TaqMan qPCR analysis was performed with an ABI 7900 Real-Time PCR System using TaqMan Fast Advanced Master Mix (Applied Biosystems). All TaqMan probes and primers for CTNNB1 and PPIB (housekeeping gene) were purchased from Applied Biosystems as pre-validated gene expression assays. Results are calculated by the comparative Ct method, where the difference between the CTNNB1 Ct value and the PPIB Ct value (ΔCt) is calculated and then further normalized relative to the PBS control by taking a second difference (ΔΔCt), as described previously (1).

[1] = Table 6, mice, sequential, peptide IV 15 min after siRNA IV, TGN-L-siRNA-III 0.25 mg/kg, peptide 2 mg/kg
[2] = Table 6, mice, sequential, peptide IV 15 min after siRNA IV, TGN-L-siRNA-III 0.25 mg/kg, peptide 10 mg/kg

TGN-CDM-SEQ ID NO: 1801 (D): TGN-CDM peptide, peptide glfgeieelieeglenlidwgng; C8 made from same all-D sequence (SEQ ID NO: 1074) (G[dL][dF]G[dE][dI][dE][dE][dL][dI][dE][dE]G[dL][dE][dN][dL][dI][dD][dW]G[dN]G; also: TGN-CDM conjugate; listed as Homo sapiens)
In vivo mRNA knockdown (%) (Table 8 (disulfide vs. ECL vs. CDM linkage), TGN-L-siRNA-II 0.25 mg/kg, targeted peptide 1 mg/kg): 23.0% | In vivo mRNA knockdown (%) (Table 8 (disulfide vs. ECL vs. CDM linkage), TGN-L-siRNA-II 0.25 mg/kg, targeted peptide 3 mg/kg): 24.9%

TGN-S-S-SEQ ID NO: 935 (L) (C(TGN)GFFGEIAELIWEGLKNLIDWWNG; reading uncertain; also: TGN attached via disulfide (S-S); listed as Homo sapiens)
In vivo mRNA knockdown (%) [1]: 17% | In vivo mRNA knockdown (%) [2]: 23%

TGN-S-S-SEQ ID NO: 1248 (L) (C(TGN)FLEELWELLEHLL; reading uncertain; listed as Homo sapiens)
In vivo mRNA knockdown (%) (Table 6, mice, sequential, peptide IV 15 min after siRNA IV, TGN-L-siRNA-III 0.5 mg/kg, peptide 5 mg/kg): 24%

TGN-S-S-SEQ ID NO: 1403 (L) (C(TGN)GLLEEIEELLEEGLENLIDWWNS; reading uncertain; listed as Homo sapiens)
In vivo mRNA knockdown (%) [1]: 22% | In vivo mRNA knockdown (%) [2]: 24%

TGN-S-S-SEQ ID NO: 1489 (D) ([dC](S‑S‑TGN)[dL][dE][dL][dW][dL][dE][dH][dL][dF][dL][dE][dL][dE]; reading uncertain; also: Cys disulfide-linked to TGN peptide; listed as Homo sapiens)
In vivo mRNA knockdown (%) (Table 6, mice, sequential, peptide IV 15 min after siRNA IV, TGN-L-siRNA-III 0.5 mg/kg, peptide 2 mg/kg): 37% | In vivo mRNA knockdown (%) (Table 6, mice, sequential, peptide IV 15 min after siRNA IV, TGN-L-siRNA-III 0.5 mg/kg, peptide 10 mg/kg): 26% | In vivo mRNA knockdown (%) (Table 6, mice, sequential, peptide IV 15 min after siRNA IV, TGN-L-siRNA-III 0.5 mg/kg, peptide 25 mg/kg): 34%

TGN-S-S-SEQ ID NO: 1516 (L) (C(TGN)GLFAEIEELLEEGLENLIDWWNG; reading uncertain; listed as Homo sapiens)
In vivo mRNA knockdown (%) (Table 6, mice, sequential, peptide IV 15 min after siRNA IV, TGN-L-siRNA-III 0.25 mg/kg, peptide 5 mg/kg): 14%

TGN-S-S-SEQ ID NO: 1631 (D) ([dC](S‑S‑TGN)G[dL][dF]G[dH][dI][dH][dH][dL][dI][dH][dH]G[dL][dH][dN][dL][dI][dD][dW][dW][dN]G; reading uncertain; also: Cys disulfide-linked to TGN peptide; listed as Homo sapiens)
In vivo mRNA knockdown (%) [2]: 17%

TGN-S-S-SEQ ID NO: 1632 (D) ([dC](S‑S‑TGN)G[dL][dF]G[dE][dI][dH][dH][dL][dI][dH][dH]G[dL][dH][dN][dL][dI][dD][dW][dW][dN]G; reading uncertain; also: Cys disulfide-linked to TGN peptide; listed as Homo sapiens)
In vivo mRNA knockdown (%) [2]: 36%

TGN-S-S-SEQ ID NO: 1633 (D) ([dC](TGN)G[dL][dF]G[dE][dI][dH][dH][dL][dI][dH][dH]G[dL][dE][dN][dL][dI][dD][dW][dW][dN]G; reading uncertain; also: Cys disulfide-linked to TGN peptide; listed as Homo sapiens)
In vivo mRNA knockdown (%) [2]: 55%

TGN-S-S-SEQ ID NO: 1634 (D) ([dC](TGN)G[dL][dF]G[dE][dI][dH][dE][dL][dI][dH][dH]G[dL][dE][dN][dL][dI][dD][dW][dW][dN]G; reading uncertain; also: Cys disulfide-linked to TGN peptide; listed as Homo sapiens)
In vivo mRNA knockdown (%) [2]: 17%

TGN-S-S-SEQ ID NO: 1643 (D) ([dC](TGN)G[dF][dF]G[dE][dI][dA][dE][dL][dI][dE][dE]G[dL][dK][dN][dL][dI][dD][dW]G[dN]G; reading uncertain; also: Cys disulfide-linked to TGN peptide; listed as Homo sapiens)
In vivo mRNA knockdown (%) [2]: 41%

TGN-S-S-SEQ ID NO: 1651 (D) ([dC](TGN)G[dL][dF][dE][dE][dI][dA][dE][dL][dI][dE][dE]G[dL][dE][dN][dL][dI][dD][dW]G[dN]G; reading uncertain; also: Cys disulfide-linked to TGN peptide; listed as Homo sapiens)
In vivo mRNA knockdown (%) [2]: 49%
